ChEMBL document CHEMBL3885861, “Open TG-GATES”

Organism: Rattus norvegicus
Experiment: Open TG-GATES - Regimen: Single
Format: toxicity, organism-based, Sprague-Dawley
Parameters: regimen Single, gender Male, age 6 weeks
Conditions: in vivo, po, 1000 mg/kg, route gavage, dose level High; for APTT / Bas / Eos / Fbg / Hb / Ht / Lym / MCH / MCHC / MCV / Mono / Neu / PT / Plat / RBC / Ret / WBC: tissue Blood; for KIDNEY_L / KIDNEY_R / KIDNEY_TOTAL: tissue Kidney; for LIVER: tissue Liver; for A/G / ALP / ALT / AST / BUN / CRE / Ca / Cl / DBIL / GLC / IP / K / LDH / Na / PL / RALB / TBIL / TC / TG / TP / gamma-GTP: tissue Plasma

## O=C(O)COc1nn(Cc2ccccc2)c2ccccc12 [BENDAZAC]
3 h
  TERMINAL_BW: 213.4 g
  APTT: 16.9 s
  Bas: 0%
  Eos: 1.2%
  Fbg: 207.6 mg/dL
  Hb: 13.6 g/dL
  Ht: 40.3%
  Lym: 74%
  MCH: 21.9 pg
  MCHC: 33.7%
  MCV: 65.1 fL
  Mono: 7.8%
  Neu: 16.8%
  PT: 11.3 s
  Plat: 130.3 x10_4/uL
  RBC: 620.2 x10_4/ul
  Ret: 12%
  WBC: 92.8 x10_2/uL
  KIDNEY_L: 1 g
  KIDNEY_R: 1 g
  KIDNEY_TOTAL: 2 g
  LIVER: 9.7 g
  A/G: 2.2
  ALP: 1482.6 IU/L
  ALT: 35.2 IU/L
  AST: 67.8 IU/L
  BUN: 12.2 mg/dL
  CRE: 0.5 mg/dL
  Ca: 10.6 mg/dL
  Cl: 100.2 meq/L
  DBIL: 0.04 mg/dL
  GLC: 195.2 mg/dL
  IP: 10.1 mg/dL
  K: 4.8 meq/L
  LDH: 99.8 IU/L
  Na: 140 meq/L
  PL: 133.6 mg/dL
  RALB: 3.7 g/dL
  TBIL: 1.4 mg/dL
  TC: 73.2 mg/dL
  TG: 42.2 mg/dL
  TP: 5.4 g/dL
  gamma-GTP: 1.2 IU/L
6 h
  TERMINAL_BW: 205.5 g
  APTT: 17.1 s
  Bas: 0%
  Eos: 1.2%
  Fbg: 215.4 mg/dL
  Hb: 14 g/dL
  Ht: 41.8%
  Lym: 68.2%
  MCH: 22.1 pg
  MCHC: 33.5%
  MCV: 66 fL
  Mono: 8%
  Neu: 23.4%
  PT: 11.8 s
  Plat: 126.4 x10_4/uL
  RBC: 633.4 x10_4/ul
  Ret: 14.3%
  WBC: 86.8 x10_2/uL
  KIDNEY_L: 0.9 g
  KIDNEY_R: 0.9 g
  KIDNEY_TOTAL: 1.9 g
  LIVER: 8.6 g
  A/G: 2.1
  ALP: 2888.2 IU/L
  ALT: 33.8 IU/L
  AST: 67.4 IU/L
  BUN: 10.6 mg/dL
  CRE: 0.6 mg/dL
  Ca: 10.5 mg/dL
  Cl: 100 meq/L
  DBIL: 0.046 mg/dL
  GLC: 189.8 mg/dL
  IP: 10.8 mg/dL
  K: 4.5 meq/L
  LDH: 114.6 IU/L
  Na: 141 meq/L
  PL: 138 mg/dL
  RALB: 3.7 g/dL
  TBIL: 1.5 mg/dL
  TC: 83 mg/dL
  TG: 21.2 mg/dL
  TP: 5.4 g/dL
  gamma-GTP: 0.8 IU/L
9 h
  TERMINAL_BW: 202.5 g
  APTT: 17.9 s
  Bas: 0%
  Eos: 1%
  Fbg: 213.4 mg/dL
  Hb: 13.6 g/dL
  Ht: 40.7%
  Lym: 79.6%
  MCH: 21.7 pg
  MCHC: 33.5%
  MCV: 64.9 fL
  Mono: 7.4%
  Neu: 12.2%
  PT: 11.8 s
  Plat: 120.8 x10_4/uL
  RBC: 627.8 x10_4/ul
  Ret: 8%
  WBC: 71.1 x10_2/uL
  KIDNEY_L: 0.9 g
  KIDNEY_R: 1 g
  KIDNEY_TOTAL: 1.9 g
  LIVER: 7.9 g
  A/G: 2.1
  ALP: 5387.2 IU/L
  ALT: 28 IU/L
  AST: 63.6 IU/L
  BUN: 11.2 mg/dL
  CRE: 0.6 mg/dL
  Ca: 10.3 mg/dL
  Cl: 100.8 meq/L
  DBIL: 0.032 mg/dL
  GLC: 177.6 mg/dL
  IP: 10 mg/dL
  K: 4.6 meq/L
  LDH: 92.8 IU/L
  Na: 141.6 meq/L
  PL: 129.8 mg/dL
  RALB: 3.7 g/dL
  TBIL: 1.5 mg/dL
  TC: 75.8 mg/dL
  TG: 30.2 mg/dL
  TP: 5.5 g/dL
  gamma-GTP: 1 IU/L
24 h
  TERMINAL_BW: 203.6 g
  APTT: 16.8 s
  Bas: 0%
  Eos: 1.6%
  Fbg: 193 mg/dL
  Hb: 14 g/dL
  Ht: 41.8%
  Lym: 77%
  MCH: 21.6 pg
  MCHC: 33.4%
  MCV: 64.6 fL
  Mono: 6.6%
  Neu: 15.2%
  PT: 13.1 s
  Plat: 133.3 x10_4/uL
  RBC: 647.6 x10_4/ul
  Ret: 10.7%
  WBC: 92.1 x10_2/uL
  KIDNEY_L: 1 g
  KIDNEY_R: 1 g
  KIDNEY_TOTAL: 1.9 g
  LIVER: 9 g
  A/G: 2.4
  ALP: 6419.2 IU/L
  ALT: 31.2 IU/L
  AST: 58 IU/L
  BUN: 12.6 mg/dL
  CRE: 0.7 mg/dL
  Ca: 10.7 mg/dL
  Cl: 99 meq/L
  DBIL: 0.056 mg/dL
  GLC: 180.6 mg/dL
  IP: 8.6 mg/dL
  K: 4.3 meq/L
  LDH: 104.4 IU/L
  Na: 140.2 meq/L
  PL: 110.8 mg/dL
  RALB: 3.9 g/dL
  TBIL: 1.9 mg/dL
  TC: 63.8 mg/dL
  TG: 31.6 mg/dL
  TP: 5.5 g/dL
  gamma-GTP: 0.8 IU/L
